From the supplement of paper PMC10307832

How the values were obtained:
Test in all cases: relative viability (nuclei count vs DMSO), 5 days (fraction); higher = more cells survive
[1] = compound: COC1=CC(c2cc3ccccc3[nH]2)=N/C1=C\c1[nH]c(C)cc1C [Obatoclax] + CS(=O)(=O)N1CCN(Cc2cc3nc(-c4cccc5[nH]ncc45)nc(N4CCOCC4)c3s2)CC1 [Pictilisib] (partner 1 µM)
How it was run: (§1)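 Relative viability equals treated-well nuclei counts divided by vehicle-well nuclei counts. Counts came from 4× images of lung cancer cell lines grown in 1536-well plates for 5 days after pin-tool dosing on the day after seeding. Dosing used one drug alone or a fixed anchor-drug dose plus five library-drug doses (not always all listed) in √10 steps, and values are medians of duplicate plates.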

[2] = compound: CC1=CC(=NN1)NC2=CC(=NC(=N2)/C=C/C3=CC=CC=C3)N4CCN(CC4)C + CCNC(=O)c1noc(-c2cc(C(C)C)c(O)cc2O)c1-c1ccc(CN2CCOCC2)cc1 [Luminespib] (partner 0.01 µM)
How it was run: as §1

[3] = compound: COC1=CC(c2cc3ccccc3[nH]2)=N/C1=C\c1[nH]c(C)cc1C [Obatoclax] + Nc1ncn([C@H]2C[C@H](O)[C@@H](CO)O2)c(=O)n1 [Decitabine] (partner 2 µM)
How it was run: as §1

[4] = compound: CC(C)C[C@H](NC(=O)[C@H](Cc1ccccc1)NC(=O)c1cnccn1)B(O)O [Bortezomib] + Cc1cc(Nc2cc(N3CCN(C)CC3)nc(Sc3ccc(NC(=O)C4CC4)cc3)n2)n[nH]1 [Tozasertib] (partner 0.1 µM)
How it was run: as §1

How did the relative viability ([1]; first compound 0.01 µM) turn out when NCI-H650 was run?
Its relative viability is 0.812.

What about the relative viability ([1]; first compound 0.03162 µM) of the same cell line?
Its relative viability is 0.722.

And the relative viability ([1]; first compound 0.1 µM)?
The relative viability was 0.597.

What about the relative viability ([1]; first compound 0.3162 µM) of the same cell line?
The relative viability was 0.462.

And the relative viability ([1]; first compound 1 µM)?
Its relative viability is 0.333.

And the relative viability ([2]; first compound 0.253 µM)?
The relative viability was 0.915.

And the relative viability ([2]; first compound 0.8 µM)?
Its relative viability is 0.813.

What about the relative viability ([2]; first compound 2.53 µM) of the same cell line?
Its relative viability is 0.411.

What about the relative viability ([2]; first compound 8 µM) of the same cell line?
The relative viability was 0.111.

What about the relative viability ([3]; first compound 0.01 µM) of the same cell line?
The relative viability was 0.299.

What about the relative viability ([3]; first compound 0.03162 µM) of the same cell line?
The relative viability was 0.312.

What about the relative viability ([3]; first compound 0.3162 µM) of the same cell line?
Its relative viability is 0.237.

And the relative viability ([3]; first compound 1 µM)?
The relative viability was 0.217.

And the relative viability ([4]; first compound 0.000632 µM)?
The relative viability was 0.697.

What about the relative viability ([4]; first compound 0.002 µM) of the same cell line?
The relative viability was 0.637.

What about the relative viability ([4]; first compound 0.006325 µM) of the same cell line?
Its relative viability is 0.286.

What about the relative viability ([4]; first compound 0.02 µM) of the same cell line?
Its relative viability is 0.133.
